Measured values reported in patent US10280158B2, “Immune adjustment compound, use thereof and pharmaceutical composition comprising same” (SUZHOU CONNECT BIOPHARMACEUTICALS, LTD., priority 2013, dated 2019).

Assays:
[1] = test system: heart rate and QT interval; assay: Telemetry assay of cardiovascular function in conscious beagle dog; assay type: in vivo; conditions: within 24 hours after administration
Protocol: To determine whether Compound 2 has an effect on heart rate and QT interval, the compound was evaluated in a telemetry assay in conscious beagle dog.
An appropriate amount of CMC-Na was prepared as a 0.5% CMC-Na (w/v) solution with sterilized water for injection. The solution was prepared one day before administration.
Solutions of Compound 2 (samples) with the concentration of 2, 6 and 20 mg/mL were prepared one day before administration as follows. An appropriate amount of Compound 2 was added into an appropriate amount of 0.5% CMC-Na solution. The obtained mixture was emulsified and homogenized on an emulsification isotropic machine. Theoretical concentrations of Compound 2 in the prepared sample solutions were 2, 6 and 20 mg/mL.
A total of 8 animals and a Double Latin squared experimental design were used in this experiment. Administration cycles were separated by 3-5 days. One day before each administration cycle, the animals were weighted and fasted overnight. On the day of administration, telemetry system (Implantable physiological signal telemetry system 1, Data Science International Inc., USA) was turned on, test parameters were set, implants were activated and physiological indexes of the animals were recorded. […] Parameters would be analyzed using artificial set after the collection was completed. The data was, firstly, analyzed by PONEMAH Version 4.8 software automatically, and then checked point by point artificially for selected values. […] Time at which values were selected were recorded.
Statistical software SPSS13.0 was used to process data in this experiment. […] Indexes of blood pressure, electrocardiogram, respiration and body temperature were expressed as “mean±standard error”, and then analyzed according to following procedure: firstly, homogeneity test was performed on the data by use of Levene Test, and if the data was uniform ([…]), single-factor variance analysis was performed; and if the result of variance analysis was significant (P≤0.05), Dunnett's multiple comparison was performed on difference between vehicle group and sample group. […]

[2] = In vivo pharmacokinetic experiment, intravenous administration; set-up: species or system Sprague Dawley rats
Protocol: In this Example, the pharmacokinetic properties of compounds 1, 2, 3, 4 and 5 were evaluated via. i.v. and p.o. dosing to Sprague Dawley rats.
Experimental animals used in this Example and hereinafter were male SD rats of 7-9 weeks old, with body weight ranging from 186 to 231 g, which were purchased from Beijing Vital River Laboratory Animal Technology Co., Ltd. The animals were quarantined by veterinarian for 5 days after purchase, then animals had passed quarantine inspection were selected to be tested under SPE conditions, wherein the tested animals are assigned into 3 rats per group as follows.
Intravenous administration group: 1.61 mg of each of compounds 1-5 was respectively prepared into a solution of 1 mg/mL by using 1.610 mL 10% HP-β-CD as a diluent. Each solution was vortexed 1-2 mins after mixed fully, and then was ultrasonically treated for 28-30 mins. The obtained solution was used as medicine administrated to intravenous administration group, and the administration was conducted with a dose of 1 mL/kg body weight of each rat.
For both oral administration group and intravenous administration group, blood samples were collected at 0.0833 h (5 min), 0.25 h (15 min), 0.5 h, 1 h, 2 h, 4 h, 8 h, and 24 h after administration. After isoflurane anesthesia 0.3 mL whole blood was collected from orbital venous plexus of the animals at each time point. The animals would be euthanized after all samples were collected.
The collected blood samples were placed in EP tubes containing heparin sodium (about 10 μl, 1000 IU/mL), which were then placed in trash ice immediately, and centrifuged at 4,000 rpm and a low temperature (4° C.) for 5 minutes. The plasma was isolated rapidly and then stored at −20° C. until analysis.
The concentration of each compound in blood was measured by LC-MS/MS-001 (Q-trap-3200) with osalmide as internal standard material, as follows. 24 μL blank plasma was added into 6 μL plasma sample (5 times of dilution), and then a solution of acetonitrile containing 150 μL internal standard material (osalmide in 100 μg/mL) was added in. The mixture was shaken for 5 minutes, and then centrifuged at 4,000 rpm for 5 minutes. 2 μL of the obtained sample was implanted into LC-MS/MS for analysis. As for undiluted plasma sample, 30 μL of it was added into a solution of acetonitrile containing 150 μL internal standard material (osalmide in 100 μg/mL). The mixture was shaken for 5 minutes, and then centrifuged at 4,000 rpm for 5 minutes. 2 μL of the obtained sample was implanted into LC-MS/MS for analysis.
As for data analysis, WinNolin (V6.2) non-compartment model (NCA) was used for calculating main metabolic pharmacokinetic parameters including t1/2, AUC(0−t), AUCinf, V, Cl, MRT, etc., and Microsoft Office EXCEL was used for calculating mean values, standard deviations and coefficients of variation.

[3] = test system: experimental autoimmune encephalomyelitis (EAE); assay: Experimental autoimmune encephalomyelitis (EAE) model; assay type: in vivo; conditions: oral, 0.03, 0.1 and 1 mg/kg, Day 0 to Day 30, C57BL/6 mice
Protocol: Eighty female C57BL/6 mice were randomly assigned into eight groups based on body weight and immunized in this study. Each group consisted of ten (10) mice. To induce the disease, MOG 35-55 (MOG, myelin oligo-dendrocyte glycoprotein) was dissolved in saline to a concentration of 2 mg/mL, and was emulsified in modified complete Freund's Adjuvant (CFA). Mice were anesthetized with isoflurane and were then injected with 100 μL of emulsion subcutaneously into the shaved backs of the mice at three sites, one along the midline of the back between the shoulders, and two on each side of the midline on the lower back. Pertuxus toxin (200 ng in 200 μL of PBS) was administered i.p. on the day of immunization and 48 hours after for all groups. EAE development was assessed by clinically scoring of the mice once daily from Day 0 to Day 30 post immunization.

[4] = intravenous administration, rats, in words
[5] = male, Sprague-Dawley, rat, plasma, intravenous administration (1 mg/kg), SD rats

CC(C)Cc1ccc(-c2nc(-c3ccc(CN4CC(C(=O)O)C4)c(F)c3)no2)cc1 [Compound 2, 1-{2-fluoro-4-[5-(4-isobutylphenyl)-1,2,4-oxadiazol-3-yl]-benzyl}-3-azetidine carboxylic acid]
QT interval versus vehicle [1]: no significant difference | QTcF interval versus vehicle [1]: no significant difference | heart rate versus vehicle [1]: no significant difference | mean residence time (MRT) compared with compound 1 [2, 4]: reduced significantly | terminal half-life compared with compound 1 [2, 4]: reduced significantly | AUC(0-inf) [2, 5]: 2010 ± 146 ng·h/mL | MRT inf [2, 5]: 6.28 ± 0.44 h | clearance [2, 5]: 8.32 mL/min/kg | half-life ([2]; male, Sprague-Dawley, rat, plasma, intravenous administration (1 mg/kg), SD rats, read-out: T½ (converted)): 5.47 ± 0.42 h | Vd ([2]; male, Sprague-Dawley, rat, plasma, intravenous administration (1 mg/kg), SD rats, read-out: Vss): 3.12 ± 0.101 L/kg | development of EAE (clinical score) [3]: effectively inhibited development of EAE
